Source: paper PMC11992225, “Antibacterial compounds against non-growing and intracellular bacteria” (npj Antimicrobials and Resistance, 2025)
Converted amounts (≈) assume the structure as drawn. Where two headings read alike, the source gives them in different places.

Columns and labels:
E. coli CFT073 (UPEC) = assay: MIC, standard microdilution assay, growing UPEC; format: cell-based, Escherichia coli
Method in brief: (§1)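 MICs come from microdilution in CA-MHB/40 mM HEPES pH 7.4 for the UPEC, Pseudomonas and Staphylococcus strains, and in TSB for Shigella. UPEC also tested in LPM/30 mM MES pH 5.5.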

P. aeruginosa DSM1117 = assay: MIC, standard microdilution assay, growing P. aeruginosa; format: cell-based, Pseudomonas aeruginosa
Method in brief: as §1

S. aureus DSM2569 = assay: MIC, standard microdilution assay, growing S. aureus; format: cell-based, Staphylococcus aureus
Method in brief: as §1

S. flexneri 5a M90T = assay: MIC in tryptic soy broth, S. flexneri; format: cell-based, Shigella flexneri; details: for MIC: Shigella flexneri, 5AM90T, read-out: MIC (μM) TSB
Method in brief: as §1

non-growing UPEC CFT073 = assay: Dilution-regrowth assay (screen, hit validation, dose-response) on stationary-phase UPEC; format: cell-based, Escherichia coli; details: for activity against non-growing UPEC in LPM (pH 5.5) compared to 1:4 CA-MHB (pH 7.4): regrowth delay and killing, Figs. 2 and 3
Method in brief: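 Regrowth (OD600 after 6 h, 37 °C) of diluted non-growing CFT073, following 24 h compound treatment of 24 h stationary cultures, defines activity relative to untreated control. Screen at 20 µM, validation at 20, 10, 5 µM (duplicates), dose–response in three biological replicates fitted by five-parameter logistic.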

[1] = system: non-growing P. aeruginosa DSM1117; assay: Dilution-regrowth assay (OD600, start-growth-time) on stationary-phase P. aeruginosa; format: cell-based, Pseudomonas aeruginosa
Experimental: To determine the spectrum of activity of the compounds that were effective against non-growing UPEC, we further assessed their efficacy against the well-characterized Gram-negative and Gram-positive reference strains P. aeruginosa DSM1117 and S. aureus DSM2569, respectively. The cultures were grown and treated for 24 h in 1:4 CA-MHB (pH 7.4). […].
For better characterization of the compounds causing the strongest regrowth delay, we performed the regrowth step of the dilution-regrowth experiments on a plate reader, measuring the OD600 at 20-min intervals for over 20 h instead of using an endpoint measurement. This approach allowed us to capture the time when cultures reached a threshold optical density (start-growth-time, SGT[15]).
Overnight cultures of UPEC, P. aeruginosa and S. aureus were grown in test tubes containing 3 ml of LB broth (~16 h), then diluted 1:100 into either 1:4 diluted CA-MHB medium buffered with 40 mM HEPES (pH 7.4) or, in case of UPEC, into LPM medium[25] supplemented with 49 µM MgCl2 and buffered with 30 mM MES (pH 5.5). The cultures were incubated for 24 h in non-baffled Erlenmeyer flasks at 37 °C with shaking at 200 rpm.
For P. aeruginosa and S. aureus, dose–response analysis was conducted in 96-well plates with a 200 μl assay volume, following the procedure used for screening assay validation experiments. Aliquots of the 39 compounds active against non-growing UPEC were obtained from SelleckChem and MedChem Express. Stock solutions were prepared and stored according to the manufacturers’ instructions, then diluted in 10% DMSO before use. Cultures were incubated for 24 h in 1:4 diluted CA-MHB medium under the same conditions used for UPEC cultivation. In preliminary experiments, each compound was tested at a concentration of 20 μM in the dilution-regrowth assay with 4 technical replicates. Regrowth was monitored using a microplate reader at 37 °C with continuous shaking, and OD600 was recorded every 20 min. The time at which OD600 exceeded the threshold of 0.12 was recorded as the Start_Growth-Time.
The statistical analysis of all data, as well as EC50 and IC50 determination, was conducted using GraphPad Prism 10.2.3. Statistical significance of the drug effects was assessed using a one-way ANOVA followed by Dunnett’s test, comparing each treatment to the drug-free control. Statistical significance of the differences in chemical characteristics between the hit compounds and the Prestwick library was assessed using a Mann–Whitney test. Statistical significance was set at P ≤ 0.05. A five-parameter logistic equation was used for asymmetric sigmoidal curve fitting and for EC50 and IC50 determination. The Venn diagram in Fig. 1F was prepared using BioVenn web application. Characteristics of the chemical and physical properties of Prestwick library compounds were obtained from Supplementary Table S1 from reference. Characteristics of the hit compounds not included in the Prestwick library were retrieved from the PubChem database.

[2] = Escherichia coli, E. coli, pH 7.4, CA-MHB, read-out: MIC (μM) CA-MHB
[3] = Pseudomonas aeruginosa, DSM1117, P. aeruginosa, 1:4 diluted CA-MHB pH 7.4, read-out: MIC (μM) 1:4 CA-MHB
[4] = Pseudomonas aeruginosa, DSM1117, P. aeruginosa, CA-MHB pH 7.4, read-out: MIC (μM) CA-MHB
[5] = Staphylococcus aureus, DSM2569, S. aureus, CA-MHB pH 7.4, read-out: MIC (μM) CA-MHB
[6] = Escherichia coli, E. coli, pH 7.4, regrowth delay of non-growing bacteria, 1:4 CA-MHB, 24 h treatment, OD600 6 h after 2500-fold dilution, read-out: EC50
[7] = Pseudomonas aeruginosa, DSM1117, P. aeruginosa, regrowth delay of non-growing bacteria, 1:4 CA-MHB pH 7.4, 24 h treatment, OD600 8 h after dilution, read-out: EC50
[8] = E. coli in 1:4 CA-MHB (pH 7.4), drug concentration 0.25
[9] = E. coli in 1:4 CA-MHB (pH 7.4), drug concentration 0.5
[10] = E. coli in 1:4 CA-MHB (pH 7.4), drug concentration 1
[11] = E. coli in 1:4 CA-MHB (pH 7.4), drug concentration 2.5
[12] = E. coli in 1:4 CA-MHB (pH 7.4), drug concentration 5
[13] = E. coli in 1:4 CA-MHB (pH 7.4), drug concentration 10
[14] = E. coli in 1:4 CA-MHB (pH 7.4), drug concentration 30
[15] = E. coli in LPM (pH 5.5), drug concentration 0.25
[16] = E. coli in LPM (pH 5.5), drug concentration 0.5
[17] = E. coli in LPM (pH 5.5), drug concentration 1
[18] = E. coli in LPM (pH 5.5), drug concentration 2.5
[19] = E. coli in LPM (pH 5.5), drug concentration 5
[20] = E. coli in LPM (pH 5.5), drug concentration 10
[21] = E. coli in LPM (pH 5.5), drug concentration 30
[22] = P. aeruginosa, drug concentration 0.1
[23] = P. aeruginosa, drug concentration 0.5
[24] = P. aeruginosa, drug concentration 2.5
[25] = P. aeruginosa, drug concentration 10

| SMILES | MIC (E. coli CFT073 (UPEC); [2]) [µM] | MIC (P. aeruginosa DSM1117; [3]) [µM] | MIC (P. aeruginosa DSM1117; [4]) [µM] | MIC (S. aureus DSM2569; [5]) [µM] | MIC (S. flexneri 5a M90T) [µM] | EC50 (non-growing UPEC CFT073; [6]) [nM] | EC50 [1, 7] [nM] | Regrowth, OD600 at 6h or 8h after dilution into drug-free medium (average) (non-growing UPEC CFT073; [8]) | Regrowth, OD600 at 6h or 8h after dilution into drug-free medium (average) (non-growing UPEC CFT073; [9]) | Regrowth, OD600 at 6h or 8h after dilution into drug-free medium (average) (non-growing UPEC CFT073; [10]) | Regrowth, OD600 at 6h or 8h after dilution into drug-free medium (average) (non-growing UPEC CFT073; [11]) | Regrowth, OD600 at 6h or 8h after dilution into drug-free medium (average) (non-growing UPEC CFT073; [12]) | Regrowth, OD600 at 6h or 8h after dilution into drug-free medium (average) (non-growing UPEC CFT073; [13]) | Regrowth, OD600 at 6h or 8h after dilution into drug-free medium (average) (non-growing UPEC CFT073; [14]) | Regrowth, OD600 at 6h or 8h after dilution into drug-free medium (average) (non-growing UPEC CFT073; [15]) | Regrowth, OD600 at 6h or 8h after dilution into drug-free medium (average) (non-growing UPEC CFT073; [16]) | Regrowth, OD600 at 6h or 8h after dilution into drug-free medium (average) (non-growing UPEC CFT073; [17]) | Regrowth, OD600 at 6h or 8h after dilution into drug-free medium (average) (non-growing UPEC CFT073; [18]) | Regrowth, OD600 at 6h or 8h after dilution into drug-free medium (average) (non-growing UPEC CFT073; [19]) | Regrowth, OD600 at 6h or 8h after dilution into drug-free medium (average) (non-growing UPEC CFT073; [20]) | other results |
| --- | --- | --- | --- | --- | --- | --- | --- | --- | --- | --- | --- | --- | --- | --- | --- | --- | --- | --- | --- | --- | --- |
| CN1CCN(c2cc3c(cc2F)c(=O)c(C(=O)O)cn3-c2ccc(F)cc2)CC1 [Difloxacin] | 0.25 (≈ 0.0998 µg/mL) | 8 (≈ 3.2 µg/mL) | 8 (≈ 3.2 µg/mL) | 1 (≈ 0.399 µg/mL) | 0.25 (≈ 0.0998 µg/mL) | 6460 | 2360 |  |  |  |  |  |  |  |  |  |  |  |  |  | MIC (E. coli CFT073 (UPEC); Escherichia coli, E. coli, LPM pH 5.5, read-out: MIC): 0.0625 µM (≈ 0.025 µg/mL); EC50 (non-growing UPEC CFT073; Escherichia coli, E. coli, LPM pH 5.5, regrowth delay of non-growing bacteria, 24 h treatment, OD600 6 h after 2500-fold dilution, read-out: EC50): 9950 nM |
| CC(=O)[O][Pt]([NH2])([Cl])([Cl])([NH]C1CCCCC1)[O]C(C)=O [Satraplatin] |  |  |  |  |  |  |  | 0.615 | 0.612 | 0.620 | 0.601 | 0.592 | 0.597 | 0.570 | 0.566 | 0.557 | 0.558 | 0.474 | 0.354 | 0.251 | MIC (E. coli CFT073 (UPEC); E. coli, LPM pH 5.5, read-out: MIC): 32 µM; MIC (E. coli CFT073 (UPEC); E. coli, pH 7.4, CA-MHB, read-out: MIC (μM) CA-MHB): >160 µM; MIC (P. aeruginosa DSM1117; P. aeruginosa, CA-MHB pH 7.4, read-out: MIC (μM) CA-MHB): 160 µM; MIC (S. aureus DSM2569; S. aureus, CA-MHB pH 7.4, read-out: MIC (μM) CA-MHB): 80 µM; MIC (μM) TSB (S. flexneri 5a M90T; S. flexneri, extracellular bacteria in TSB): 128 µM; Regrowth, OD600 at 6h or 8h after dilution into drug-free medium (average) (non-growing UPEC CFT073; [21]): 0.087; EC50 (non-growing UPEC CFT073; E. coli, LPM pH 5.5, regrowth delay of non-growing bacteria, 24 h treatment, OD600 6 h after 2500-fold dilution, read-out: EC50): 7620 nM; activity against non-growing UPEC in LPM (pH 5.5) compared to 1:4 CA-MHB (pH 7.4) (non-growing UPEC CFT073): potentiated by the low pH; Regrowth, OD600 at 6h or 8h after dilution into drug-free medium (average) [1, 22]: 0.622; Regrowth, OD600 at 6h or 8h after dilution into drug-free medium (average) [1, 23]: 0.518; Regrowth, OD600 at 6h or 8h after dilution into drug-free medium (average) [1, 24]: 0.207; Regrowth, OD600 at 6h or 8h after dilution into drug-free medium (average) [1, 25]: 0.094; EC50 ([1]; P. aeruginosa, regrowth delay of non-growing bacteria, 1:4 CA-MHB pH 7.4, 24 h treatment, OD600 8 h after dilution, read-out: EC50): 1200 nM |
| CN1C[C@@H]2C[C@H]1CN2c1cc2c(cc1F)c(=O)c(C(=O)O)cn2C1CC1 [Danofloxacin] | 0.125 (≈ 0.0447 µg/mL) | 4 (≈ 1.43 µg/mL) | 4 (≈ 1.43 µg/mL) | 0.5 (≈ 0.179 µg/mL) | 0.0625 (≈ 0.0223 µg/mL) | 2160 | 604 |  |  |  |  |  |  |  |  |  |  |  |  |  |  |
| CO[C@@]12[C@H](COC(N)=O)C3=C(C(=O)C(C)=C(N)C3=O)N1C[C@@H]1N[C@@H]12 [Mitomycin C] |  |  |  |  | 1 (≈ 0.334 µg/mL) |  |  | 0.575 | 0.556 | 0.551 | 0.482 | 0.179 | 0.065 | 0.063 | 0.474 | 0.440 | 0.294 | 0.140 | 0.136 | 0.136 | MIC (E. coli CFT073 (UPEC); Escherichia coli, pH 5.5): 0.5 µM (≈ 0.167 µg/mL); MIC (E. coli CFT073 (UPEC); Escherichia coli, pH 7.4, read-out: MIC (μM) CA-MHB): 2 µM (≈ 0.669 µg/mL); MIC (P. aeruginosa DSM1117; Pseudomonas aeruginosa, DSM1117, pH 7.4, read-out: MIC (μM) 1:4 CA-MHB): 10 µM (≈ 3.34 µg/mL); MIC (P. aeruginosa DSM1117; Pseudomonas aeruginosa, DSM1117, pH 7.4, read-out: MIC (μM) CA-MHB): 10 µM (≈ 3.34 µg/mL); MIC (S. aureus DSM2569; Staphylococcus aureus, DSM2569, pH 7.4, read-out: MIC (μM) CA-MHB): 0.25 µM (≈ 0.0836 µg/mL); Regrowth, OD600 at 6h or 8h after dilution into drug-free medium (average) (non-growing UPEC CFT073; [21]): 0.134; EC50 (non-growing UPEC CFT073; Escherichia coli, pH 5.5): 706 nM; EC50 (non-growing UPEC CFT073; Escherichia coli, pH 5.5, read-out: EC50 (regrowth inhibition curve, Fig. S4)): 690 nM; EC50 (non-growing UPEC CFT073; Escherichia coli, pH 7.4): 3680 nM; EC50 (non-growing UPEC CFT073; Escherichia coli, pH 7.4, read-out: EC50 (regrowth inhibition curve, Fig. S4)): 3770 nM; activity against non-growing UPEC in LPM (pH 5.5) compared to 1:4 CA-MHB (pH 7.4) (non-growing UPEC CFT073): potentiated by the low pH; Regrowth, OD600 at 6h or 8h after dilution into drug-free medium (average) [1, 22]: 0.203; Regrowth, OD600 at 6h or 8h after dilution into drug-free medium (average) [1, 23]: 0.116; Regrowth, OD600 at 6h or 8h after dilution into drug-free medium (average) [1, 24]: 0.094; Regrowth, OD600 at 6h or 8h after dilution into drug-free medium (average) [1, 25]: 0.095; EC50 ([1]; Pseudomonas aeruginosa, DSM1117, pH 7.4): 28 nM |
